Results reported in ChEMBL document CHEMBL4334442, “Effects of Acetylshikonin on the Infection and Replication of Coxsackievirus A16 in Vitro and in Vivo” (J Nat Prod, 2019).
Active and inactive are the calls of the source. The calls are words filed in the database; no cut-off is given here.

How the values were obtained:
[1] = tested on: Coxsackievirus A16; assay: Antiviral activity against Coxsackievirus A16 TA271 infected in human RD cells assessed as inhibition of virus-induced cytopathic effect at 0.08 uM/L preincubated with viral suspension for 2 hrs followed by cell addition and measured after 24 hrs by CCK-8 assay relative to control; assay type: functional; settings: Enterovirus A
[2] = tested on: Coxsackievirus A16; assay: Antiviral activity against Coxsackievirus A16 TA271 infected in ICR mouse assessed as reduction in viral load in heart at 2 mg/kg, im after 3 to 5 days post infection by RT-PCR analysis; assay type: functional, organism-based
[3] = tested on: Coxsackievirus A16; assay: Antiviral activity against Coxsackievirus A16 TA271 infected in ICR mouse assessed as reduction in lesions in spinal muscle at 2 mg/kg, im after 5 days post infection by H and E staining based histopathological analysis; assay type: functional, organism-based
[4] = tested on: Coxsackievirus A16; assay: Antiviral activity against Coxsackievirus A16 TA271 infected in ICR mouse assessed as reduction in viral load in lung at 0.08 uM/L preincubated with viral suspension for 2 hrs followed by intramuscular administration after 3 to 5 days post infection by RT-PCR analysis; assay type: functional
[5] = tested on: Coxsackievirus A16; assay: Antiviral activity against Coxsackievirus A16 TA271 infected in RD cells at preinfection stage assessed as appearance of rounded cells at 0.08 uM/L preincubated with cells for 3 hrs followed by viral infection and measured after 1 hr by inverted microscopic analysis; assay type: functional, cell-based
[6] = tested on: Coxsackievirus A16; assay: (§1) Antiviral activity against Coxsackievirus A16 TA271 infected in RD cells at release stage assessed as cell fragmentation at 0.08 uM/L preincubated with cells for 1 hr followed by replacement of fresh medium containing compounds after 5 hrs post infection and further incubated for 16 hrs post infection by inverted microscopic analysis; assay type: functional, cell-based
[7] = Toxicity in ICR mouse infected with Coxsackievirus A16 TA271 assessed as increase in body weight at 0.08 uM/L preincubated with viral suspension for 2 hrs followed by intramuscular administration and measured every day; settings: in vivo, im
[8] = tested on: Coxsackievirus A16; assay: Antiviral activity against Coxsackievirus A16 LW2 infected in RD cells assessed as reduction in viral genome copies at 0.08 uM/L preincubated with viral suspension for 2 hrs followed by cell addition and measured at 24 hrs post infection by RT-PCR analysis; assay type: functional, cell-based
[9] = tested on: Coxsackievirus A16; assay: Antiviral activity against Coxsackievirus A16 16038 infected in RD cells assessed as reduction in viral genome copies at 0.08 uM/L preincubated with viral suspension for 2 hrs followed by cell addition and measured at 24 hrs post infection by RT-PCR analysis; assay type: functional, cell-based
[10] = tested on: Coxsackievirus A16; assay: (§2) Antiviral activity against Coxsackievirus A16 TA271 infected in RD cells at replication stage assessed as cell detachment at 0.08 uM/L 1 hr post-infection viral inoculum was removed and cells incubated with medium containing compound and measured after 5 hrs by inverted microscopic analysis; assay type: functional, cell-based
[11] = tested on: Coxsackievirus A16; assay: Antiviral activity against Coxsackievirus A16 TA271 infected in ICR mouse assessed as mild alveolar wall thickening in lung at 2 mg/kg, im after 5 days post infection by H and E staining based histopathological analysis; assay type: functional, organism-based
[12] = tested on: Coxsackievirus A16; assay: as §1, with “assessed as appearance of cell shrinkage” for “assessed as cell fragmentation”, “of cell shrinkage at 0.08” for “as cell fragmentation at 0.08”; assay type: functional, cell-based
[13] = tested on: Coxsackievirus A16; assay: Antiviral activity against Coxsackievirus A16 TA271 infected in RD cells assessed as inhibition of viral adsorption/viral entry by measuring increase in cell viability at 0.08 uM/L after 1 hr by inverted microscopic analysis; assay type: functional, cell-based
[14] = tested on: Coxsackievirus A16; assay: Antiviral activity against Coxsackievirus A16 TA271 infected in ICR mouse assessed as reduction in viral load in lung at 2 mg/kg, im after 3 to 5 days post infection by RT-PCR analysis; assay type: functional, organism-based
[15] = tested on: Coxsackievirus A16; assay: Antiviral activity against Coxsackievirus A16 TA271 infected in ICR mouse assessed as reduction in inflammatory cell infiltration in lung at 2 mg/kg, im after 5 days post infection by H and E staining based histopathological analysis; assay type: functional, organism-based
[16] = Cytotoxicity against human RD cells assessed as cell survival at <5 uM after 24 hrs by CCK8 assay relative to control; assay type: cell-based; settings: read-out: Activity
[17] = tested on: Coxsackievirus A16; assay: as §1, with “increase in intracytoplasmic granules” for “cell fragmentation”; assay type: functional, cell-based
[18] = tested on: Coxsackievirus A16; assay: Antiviral activity against Coxsackievirus A16 TA271 infected in ICR mouse assessed as mild alveolar fibrosis in hind limb muscle at 2 mg/kg, im after 5 days post infection by H and E staining based histopathological analysis; assay type: functional, organism-based
[19] = tested on: Coxsackievirus A16; assay: Antiviral activity against Coxsackievirus A16 TA271 infected in ICR mouse assessed as reduction in lesions in lung at 2 mg/kg, im after 5 days post infection by H and E staining based histopathological analysis; assay type: functional, organism-based
[20] = tested on: Coxsackievirus A16; assay: Antiviral activity against Coxsackievirus A16 TA271 infected in ICR mouse assessed as reduction in inflammatory cell infiltration in heart at 2 mg/kg, im after 5 days post infection by H and E staining based histopathological analysis; assay type: functional, organism-based
[21] = tested on: Coxsackievirus A16; assay: Antiviral activity against Coxsackievirus A16 TA271 infected in ICR mouse assessed as reduction in muscle fiber breakage in lung at 2 mg/kg, im after 5 days post infection by H and E staining based histopathological analysis; assay type: functional, organism-based
[22] = Toxicity in ICR mouse infected with Coxsackievirus A16 TA271 assessed as increase in body weight at 2 mg/kg, im and measured every day; assay type: organism-based; settings: in vivo
[23] = tested on: Coxsackievirus A16; assay: as §2, with “assessed as appearance of cell shrinkage” for “assessed as cell detachment”, “of cell shrinkage at 0.08” for “as cell detachment at 0.08”; assay type: functional, cell-based
[24] = tested on: Coxsackievirus A16; assay: Antiviral activity against Coxsackievirus A16 TA271 infected in RD cells assessed as inhibition of viral adsorption/entry by measuring reduction in viral load at 0.08 uM/L incubated for 1 hr and measured after 48 hrs post infection by RT-PCR analysis; assay type: functional, cell-based
[25] = tested on: Coxsackievirus A16; assay: as §2, with “appearance of rounded cells” for “cell detachment”; assay type: functional, cell-based
[26] = tested on: Coxsackievirus A16; assay: Antiviral activity against Coxsackievirus A16 TA271 infected in ICR mouse assessed as reduction in viral load in hind limb muscle at 0.08 uM/L preincubated with viral suspension for 2 hrs followed by intramuscular administration after 3 to 5 days post infection by RT-PCR analysis; assay type: functional
[27] = tested on: Coxsackievirus A16; assay: Antiviral activity against Coxsackievirus A16 TA271 infected in ICR mouse assessed as reduction in viral load in spinal muscle at 2 mg/kg, im after 3 to 5 days post infection by RT-PCR analysis; assay type: functional, organism-based
[28] = tested on: Coxsackievirus A16; assay: as §1, with “appearance of rounded cells” for “cell fragmentation”; assay type: functional, cell-based
[29] = tested on: Coxsackievirus A16; assay: Antiviral activity against Coxsackievirus A16 TA271 infected in ICR mouse assessed as mouse survival at 2 mg/kg, im measured on day 6 post infection relative to control; assay type: functional; settings: Enterovirus A, 144 h
[30] = tested on: Coxsackievirus A16; assay: Antiviral activity against Coxsackievirus A16 TA271 infected in ICR mouse assessed as mild alveolar fibrosis in heart at 2 mg/kg, im after 5 days post infection by H and E staining based histopathological analysis; assay type: functional, organism-based
[31] = tested on: Coxsackievirus A16; assay: Antiviral activity against Coxsackievirus A16 TA271 infected in ICR mouse assessed as reduction in lesions in hind limb muscle at 2 mg/kg, im after 5 days post infection by H and E staining based histopathological analysis; assay type: functional, organism-based

CC(=O)OC(CC=C(C)C)C1=CC(=O)c2c(O)ccc(O)c2C1=O (stereo unspecified)
inhibition at 0.08 µM [1]: 80% | Activity [2]: Active | Activity [3]: Active | Activity [4]: Active | Activity [5]: inactive | Activity [6]: inactive | Activity [7]: Non-Toxic | Activity [8]: Active | Activity [9]: Active | Activity [10]: inactive | Activity [11]: Active | Activity [12]: inactive | inhibition [13]: Active | Activity [14]: Active | Activity [15]: Active | viability at 24 h [16]: > 90% | Activity [17]: inactive | Activity [18]: Active | Activity [19]: Active | Activity [20]: Active | Activity [21]: Active | Activity [22]: Non-Toxic | Activity [23]: inactive | Activity [24]: Active | Activity [25]: inactive | Activity [26]: Active | Activity [27]: Active | Activity [28]: inactive | survival at 2 mg/kg [29]: 50% | Activity [30]: Active | Activity [31]: Active
